Test results taken from ChEMBL document CHEMBL5241106, “Discovery of a Dual Tubulin and Poly(ADP-Ribose) Polymerase-1 Inhibitor by Structure-Based Pharmacophore Modeling, Virtual Screening, Molecular Docking, and Biological Evaluation” (J Med Chem, 2021).
The source made the active and inactive calls. The calls are words filed in the database; no cut-off is given here.

Experiments:
Tubulin (Homo sapiens) = Tubulin (Homo sapiens) (UniProt P68371+Q9H4B7+P0DPH7+P68366+Q13509+Q71U36+P04350+Q3ZCM7+P07437+P68363+Q9BQE3+Q6PEY2+Q13885+Q9BVA1+Q9BUF5); assay: Inhibition of tubulin polymerization (unknown origin) at 10 uM by turbidimetric analysis; assay type: protein-complex assay
[1] = molecular target: Poly [ADP-ribose] polymerase 1 (Homo sapiens, UniProt P09874); assay: Inhibition of PARP1 (unknown origin) using [3H]NAD+ as substrate incubated for 15 mins by scintillation counting analysis
Sequence of Poly [ADP-ribose] polymerase 1 (P09874 whole entry): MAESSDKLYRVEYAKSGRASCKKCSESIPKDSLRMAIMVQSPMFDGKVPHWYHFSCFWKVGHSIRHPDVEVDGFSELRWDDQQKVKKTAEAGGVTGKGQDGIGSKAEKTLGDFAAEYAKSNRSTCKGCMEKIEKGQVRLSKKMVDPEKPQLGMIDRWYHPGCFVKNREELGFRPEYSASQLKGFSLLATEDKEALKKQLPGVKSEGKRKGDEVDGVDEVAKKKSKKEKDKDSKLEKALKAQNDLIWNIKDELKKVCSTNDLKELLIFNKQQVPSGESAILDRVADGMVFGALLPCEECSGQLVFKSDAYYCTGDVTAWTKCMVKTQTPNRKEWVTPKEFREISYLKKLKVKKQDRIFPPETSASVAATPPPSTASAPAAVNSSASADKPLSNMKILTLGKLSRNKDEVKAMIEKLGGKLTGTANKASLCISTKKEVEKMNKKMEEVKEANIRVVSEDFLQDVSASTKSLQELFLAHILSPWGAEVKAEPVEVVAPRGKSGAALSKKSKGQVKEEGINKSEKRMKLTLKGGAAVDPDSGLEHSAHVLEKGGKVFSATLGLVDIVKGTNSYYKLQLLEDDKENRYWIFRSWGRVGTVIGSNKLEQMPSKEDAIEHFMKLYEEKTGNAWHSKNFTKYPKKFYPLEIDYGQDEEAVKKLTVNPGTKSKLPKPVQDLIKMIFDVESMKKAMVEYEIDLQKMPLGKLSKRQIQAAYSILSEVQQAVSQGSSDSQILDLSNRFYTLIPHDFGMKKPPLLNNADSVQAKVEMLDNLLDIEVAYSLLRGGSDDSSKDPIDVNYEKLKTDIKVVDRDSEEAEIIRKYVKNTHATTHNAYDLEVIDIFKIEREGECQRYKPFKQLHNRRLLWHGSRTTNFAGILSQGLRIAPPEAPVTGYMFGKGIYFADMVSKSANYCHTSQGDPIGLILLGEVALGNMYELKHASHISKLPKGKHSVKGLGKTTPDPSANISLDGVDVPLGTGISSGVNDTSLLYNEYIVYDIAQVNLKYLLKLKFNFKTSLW

MDA-MB-231 [2] = assay: Cytotoxicity against human MDA-MB-231 cells assessed as inhibition of cell growth incubated for 72 hrs by MTT assay; assay type: functional, cell-based
[3] = Cytotoxicity against human MCF-10A cells assessed as inhibition of cell growth incubated for 72 hrs by MTT assay; assay type: toxicity, cell-based
MDA-MB-231 [4] = assay: Induction of apoptosis in human MDA-MB-231 cells incubated for 24 hrs by DAPI staining based confocal laser microscopy; assay type: functional, cell-based
MDA-MB-231 [5] = assay: Induction of apoptosis in human MDA-MB-231 cells assessed as viable cells at 2.5 uM incubated for 48 hrs by Annexin V-FITC/PI staining based flow cytometry (reference value: 91.4%); assay type: functional; details: read-out: Activity
MDA-MB-231 [6] = assay: Induction of apoptosis in human MDA-MB-231 cells assessed as early apoptotic cells at 2.5 uM incubated for 48 hrs by Annexin V-FITC/PI staining based flow cytometry (reference value: 1.71%); assay type: functional
MDA-MB-231 [7] = assay: Induction of apoptosis in human MDA-MB-231 cells assessed as late apoptotic cells at 2.5 uM incubated for 48 hrs by Annexin V-FITC/PI staining based flow cytometry (reference value: 5.06%); assay type: functional
MDA-MB-231 [8] = assay: Induction of apoptosis in human MDA-MB-231 cells assessed as necrotic cells at 2.5 uM incubated for 48 hrs by Annexin V-FITC/PI staining based flow cytometry (reference value: 1.86%); assay type: functional
Tubulin = assay: Inhibition of tubulin polymerization (unknown origin) by turbidimetric analysis; assay type: protein-complex assay, Homo sapiens

Row | SMILES | inhibition (Tubulin (Homo sapiens)) [%] | other results
1 | O=c1[nH]c(/C=C/c2ccccc2)nc2ccccc12 | 82 | –
2 | COc1ccc(-c2nc3ccccc3c(=O)[nH]2)cc1C | 49 | –
3 | COc1cc2c(c(OC)c1OC)-c1ccc(OC)c(=O)cc1[C@@H](NC(C)=O)CC2 [COLCHICINE] | – | IC50 [1]: Not Active; Activity (MDA-MB-231 [2]): Active; IC50 at 72 h [3]: 6 nM; Activity (MDA-MB-231 [4]): Active; viability at 2.5 µM (MDA-MB-231 [5]): 88%; Activity (MDA-MB-231 [6]): 1.89%; Activity (MDA-MB-231 [7]): 8.1%; Activity (MDA-MB-231 [8]): 2.04%
4 | COc1cc(/C=C/c2nc(O)c3ccccc3n2)ccc1O | 69 | –
5 | O=c1[nH]c(/C=C/c2cc(Br)ccc2O)nc2ccccc12 | 63 | –
6 | COc1ccc(-c2nc(O)c3ccccc3n2)cc1 | 47 | –
7 | O=c1[nH]c(/C=C/c2cccc([N+](=O)[O-])c2)nc2ccccc12 | 65 | –
8 | O=c1[nH]c(/C=C/c2ccc([N+](=O)[O-])cc2)nc2ccccc12 | 61 | –
9 | Cc1ccc(-c2nc3ccccc3c(=O)[nH]2)cc1 | 45 | –
10 | CN(C)C(=O)Cc1ccc2[nH]c(=O)c3ccccc3c2c1 | – | IC50 (Tubulin): Not Active
11 | Cc1cccc(-c2nc(O)c3ccccc3n2)c1 | 43 | –
